Data published in the supplement of paper PMC10307832.

How the values were obtained:
Test in all cases: relative viability (nuclei count vs DMSO), 5 days (fraction); higher = more cells survive
IA-LM = tested on: IA-LM
How it was run: (§1)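 Lung cancer cell lines were pin-tool dosed in 1536-well plates on the day after seeding, with either a lone drug or a fixed anchor-drug dose plus five library-drug doses (not always all listed) in √10 steps. Nuclei were counted on 4× images after 5 days. Relative viability is the ratio of treated-well to vehicle-well nuclei counts, with each value a median of duplicate plates.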

EBC-1 = tested on: EBC-1
How it was run: as §1

UMC-11 = tested on: UMC-11
How it was run: as §1

NCI-H1703 = tested on: NCI-H1703
How it was run: as §1

NCI-H1993 = tested on: NCI-H1993
How it was run: as §1

NCI-H1299 = tested on: NCI-H1299
How it was run: as §1

NCI-H23 = tested on: NCI-H23
How it was run: as §1

A549 = tested on: A549
How it was run: as §1

NCI-H1355 = tested on: NCI-H1355
How it was run: as §1

NCI-H322M = tested on: NCI-H322M
How it was run: as §1

LCLC-97TM1 = tested on: LCLC-97TM1
How it was run: as §1

NCI-H596 = tested on: NCI-H596
How it was run: as §1

Calu-6 = tested on: Calu-6
How it was run: as §1

SMILES: O=c1cc(-c2cccc3c2Sc2ccccc2S3)oc(N2CCOCC2)c1 + Cc1nc(NC(=O)N2CCC[C@H]2C(N)=O)sc1-c1ccnc(C(C)(C)C(F)(F)F)c1 [Alpelisib] (partner 2 µM)
- relative viability (IA-LM; first compound 0.08 µM): 0.664
- relative viability (IA-LM; first compound 0.253 µM): 1.06
- relative viability (IA-LM; first compound 0.8 µM): 0.852
- relative viability (IA-LM; first compound 2.53 µM): 0.862
- relative viability (IA-LM; first compound 8 µM): 0.677
- relative viability (EBC-1; first compound 0.08 µM): 0.792
- relative viability (EBC-1; first compound 0.253 µM): 1.03
- relative viability (EBC-1; first compound 0.8 µM): 0.816
- relative viability (EBC-1; first compound 2.53 µM): 0.755
- relative viability (EBC-1; first compound 8 µM): 0.522
- relative viability (UMC-11; first compound 0.08 µM): 0.965
- relative viability (UMC-11; first compound 0.253 µM): 1.35
- relative viability (UMC-11; first compound 0.8 µM): 1.17
- relative viability (UMC-11; first compound 2.53 µM): 0.98
- relative viability (UMC-11; first compound 8 µM): 1.42
- relative viability (NCI-H1703; first compound 0.253 µM): 0.459
- relative viability (NCI-H1703; first compound 0.8 µM): 0.296
- relative viability (NCI-H1703; first compound 2.53 µM): 0.245
- relative viability (NCI-H1703; first compound 8 µM): 0.295
- relative viability (NCI-H1993; first compound 0.08 µM): 0.735
- relative viability (NCI-H1993; first compound 0.253 µM): 0.687
- relative viability (NCI-H1993; first compound 0.8 µM): 0.69
- relative viability (NCI-H1993; first compound 2.53 µM): 0.68
- relative viability (NCI-H1993; first compound 8 µM): 0.718
- relative viability (NCI-H1299; first compound 0.08 µM): 1.03
- relative viability (NCI-H1299; first compound 0.253 µM): 1.09
- relative viability (NCI-H1299; first compound 0.8 µM): 1.13
- relative viability (NCI-H1299; first compound 2.53 µM): 1.03
- relative viability (NCI-H1299; first compound 8 µM): 1.08
- relative viability (NCI-H23; first compound 0.08 µM): 0.562
- relative viability (NCI-H23; first compound 0.253 µM): 0.801
- relative viability (NCI-H23; first compound 0.8 µM): 0.752
- relative viability (NCI-H23; first compound 2.53 µM): 0.603
- relative viability (NCI-H23; first compound 8 µM): 0.72
- relative viability (A549; first compound 0.08 µM): 0.738
- relative viability (A549; first compound 0.253 µM): 0.958
- relative viability (A549; first compound 0.8 µM): 0.857
- relative viability (A549; first compound 2.53 µM): 0.659
- relative viability (A549; first compound 8 µM): 0.653
- relative viability (NCI-H1355; first compound 0.08 µM): 0.726
- relative viability (NCI-H1355; first compound 0.253 µM): 0.949
- relative viability (NCI-H1355; first compound 0.8 µM): 0.601
- relative viability (NCI-H1355; first compound 2.53 µM): 0.748
- relative viability (NCI-H1355; first compound 8 µM): 0.704
- relative viability (NCI-H322M; first compound 0.08 µM): 0.784
- relative viability (NCI-H322M; first compound 0.253 µM): 0.79
- relative viability (NCI-H322M; first compound 0.8 µM): 0.79
- relative viability (NCI-H322M; first compound 2.53 µM): 0.964
- relative viability (NCI-H322M; first compound 8 µM): 0.838
- relative viability (LCLC-97TM1; first compound 0.08 µM): 0.238
- relative viability (LCLC-97TM1; first compound 0.253 µM): 0.27
- relative viability (LCLC-97TM1; first compound 0.8 µM): 0.323
- relative viability (LCLC-97TM1; first compound 2.53 µM): 0.205
- relative viability (LCLC-97TM1; first compound 8 µM): 0.218
- relative viability (NCI-H596; first compound 0.08 µM): 0.588
- relative viability (NCI-H596; first compound 0.253 µM): 0.55
- relative viability (NCI-H596; first compound 0.8 µM): 0.5
- relative viability (NCI-H596; first compound 2.53 µM): 0.469
- relative viability (NCI-H596; first compound 8 µM): 0.594
- relative viability (Calu-6; first compound 0.08 µM): 0.841
- relative viability (Calu-6; first compound 0.253 µM): 1.12
- relative viability (Calu-6; first compound 0.8 µM): 1
- relative viability (Calu-6; first compound 2.53 µM): 0.923
- relative viability (Calu-6; first compound 8 µM): 1.06
